Measurements: ChEMBL document CHEMBL4130597 (ACS Med Chem Lett, 2017)
pEC50, pIC50: −log10 of the molar value.

How the values were obtained:
[1] = test system: Human immunodeficiency virus 1; test: Antiviral activity against HIV1 infected in GFP expressing human MT4 cells assessed as inhibition of viral replication after 24 hrs in presence of 50% normal human serum; assay type: functional, organism-based; conditions: Human immunodeficiency virus 1, MT4, 24 h
[2] = molecular target: Protease (Human immunodeficiency virus 1) (UniProt Q9YQ12); test: Potency index, ratio of MK-8718 IC50 to test compound IC50 for HIV1 protease
[3] = molecular target: Protease (Human immunodeficiency virus 1, UniProt Q9YQ12); test: Inhibition of HIV1 protease expressed in Escherichia coli using Val-Ser-Gln-Asn-(beta-naphtyl)Ala-Pro-Ile-Val as substrate preincubated for 30 mins followed by substrate addition measured after 1 hr by mass spectrometric method
[4] = test system: Human immunodeficiency virus 1; test: Potency index, ratio of MK-8718 EC50 to test compound EC50 for HIV1 infected in GFP expressing human MT4 cells assessed as inhibition of viral replication; assay type: functional

Protease, sequence (Q9YQ12 whole entry): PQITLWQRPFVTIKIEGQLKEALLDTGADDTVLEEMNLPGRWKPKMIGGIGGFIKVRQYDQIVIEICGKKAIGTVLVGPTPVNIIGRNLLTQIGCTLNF
Protease (Human immunodeficiency virus 1), sequence (Q9YQ12 as listed by the source): as the sequence (Q9YQ12 whole entry) above

| Compound | pEC50 [1] | other results |
| --- | --- | --- |
| CC(C)CN(C[C@@H](O)[C@H](Cc1ccccc1)NC(=O)O[C@H]1CO[C@H]2OCC[C@H]21)S(=O)(=O)c1ccc(N)cc1 | 8.15 |  |
| C[C@@H]1CN(S(=O)(=O)c2ccccc2)[C@@H](CCc2c(F)cccc2NC(=O)CC(c2ccc(F)cc2)c2ccc(F)cc2)CN1 | 6.28 |  |
| O=C(CC(c1ccc(F)cc1)c1ccc(F)cc1)Nc1cccc(F)c1CC[C@H]1CNCCN1S(=O)(=O)c1ccccc1 | 7.57 |  |
| O=C(CC(c1ccc(F)cc1)c1ccc(F)cc1)Nc1cccc(F)c1CC[C@H]1CN[C@@H]2CCCS(=O)(=O)N1C2 | 7.68 |  |
| N[C@H](C(=O)Nc1cncc(F)c1CC[C@H]1CN[C@@H]2CCCS(=O)(=O)N1C2)[C@@H](c1ccc(Cl)cc1)c1cc(F)cc(F)c1 | 8.55 | Ratio IC50 [2]: 60; pIC50 [3]: 10.92; Ratio EC50 [4]: 10 |
| O=C(CC(c1ccc(F)cc1)c1ccc(F)cc1)Nc1cccc(F)c1CC[C@@H]1CNCCN1S(=O)(=O)c1ccccc1 | 5.92 |  |
| N[C@H](C(=O)Nc1cncc(F)c1CC[C@@H]1CN[C@H](COC(=O)NCC(F)(F)F)CO1)[C@@H](c1ccc(Cl)cc1)c1cc(F)cc(F)c1 | 7.57 | pIC50 [3]: 9.15 |
| C[C@H]1CNC[C@H](CCc2c(F)cccc2NC(=O)CC(c2ccc(F)cc2)c2ccc(F)cc2)N1S(=O)(=O)c1ccccc1 | 7.77 |  |
| COC(=O)N[C@H](C(=O)N[C@@H](Cc1ccccc1)[C@@H](O)CN(Cc1ccc(-c2ccccn2)cc1)NC(=O)[C@@H](NC(=O)OC)C(C)(C)C)C(C)(C)C [ATAZANAVIR] | 7.92 |  |
| C[C@H]1CN(S(=O)(=O)c2ccccc2)[C@@H](CCc2c(F)cccc2NC(=O)CC(c2ccc(F)cc2)c2ccc(F)cc2)CN1 | 6.15 |  |
| C[C@@H]1CNC[C@H](CCc2c(F)cccc2NC(=O)CC(c2ccc(F)cc2)c2ccc(F)cc2)N1S(=O)(=O)c1ccccc1 | 7.15 |  |
